Two molecules from US9458460B2, “Pharmaceutical compositions for treating cancer” (National University of Singapore, priority 2011, dated 2016) can be followed below.

Read-outs that look alike come from different tables or passages of the source.

Holding throughout (type): cell-based
One test concerns BMP4. The test can be described thus: BMP4 expression after 5-azadC treatment. The method, then: (§1) Gastric cancer cell lines were treated with 5-aza-2′-deoxycytidine (5-azadC), a chemical inhibitor of DNA methyltransferases to investigate if BMP4 gene expression is regulated by BMP4 promoter methylation.
For another test, the system named is SMAD1/5/8. The test can be described thus: phosphorylation of BMP-downstream targets after 5-azadC treatment. The protocol: as §1
The test system of another test is AGS cells. As to the kind of experiment: cisplatin growth inhibition (GI50) in GC cell lines. Particulars: 48 hrs. The protocol: (§2) 20 GC cell lines were treated with increasing concentrations of cisplatin, from 0.1 μM to 1 mM. For each line, the cisplatin GI50, referring to the concentration of cisplatin required to cause 50% growth inhibition at 48 hrs.
The subject of test [1] is YCC11 cells. The test is described as above. Particulars: 48 hrs. The method, then: as §2
Another test concerns GC cells. The test can be described thus: high-content screening of morpho-cellular parameters after cisplatin treatment. The method, then:
The reason for cell growth inhibition caused by cisplatin was determined using high-content screening (HCS), a cell-based technology allowing biological responses to be measured at the single-cell level, to quantify levels of caspase-3 activation in GC cells after cisplatin treatment. Five distinct morpho-cellular parameters were quantified for alterations induced by cisplatin—caspase3 activation, nuclear size, nuclear condensation, nuclear morphology and nuclear ellipticity.

For a further test, the system named is AZ521 cells. The test can be described thus: cisplatin growth inhibition and caspase-3 activation in BMP4-manipulated cells. The note with it: for GI50: read-out: absolute GI50.
For test [2], the system named is YCC11 cells. The description is as above. Particulars: for IC50: read-out: absolute 0150.

Regarding `Nc1ncn([C@H]2C[C@H](O)[C@@H](CO)O2)c(=O)n1` [5-azadC, 5-aza-2′-deoxycytidine], in the test on BMP4 (cisplatin sensitive lines YCC10 and YCC11 (BMP4 promoter methylated)), the BMP4 transcripts entry is recorded as “up-regulated”. The BMP4 expression result with BMP4 (resistant cell lines MKN45 and AZ521 (BMP4 promoter unmethylated)) is “did not alter”. Besides, the “phosphorylated SMAD1/5/8” value with SMAD1/5/8 (cisplatin resistant lines MKN45 and AZ521) was “not affected”. The “phosphorylation of SMAD1/5/8” value in the test on SMAD1/5/8 (cisplatin sensitive lines YCC10 and YCC11) is recorded as “increased”.

One may read the GI50 as the concentration at which growth is held to half of that of the control. As to `N.N.[Cl][Pt][Cl]` [cisplatin, cis-diamminedichloroplatinum (II)], the GI50 with AGS cells was 126000 nM; in the test on YCC11 cells [1], 1500 nM; in the test with AZ521 cells (BMP4-silenced AZ521 cells (individual clones 1 and 2)) it was 1100 to 3240 nM; in the test on AZ521 cells (parental AZ521 cells) it was 15000 nM. The caspase-3 activation levels result in the test with GC cells (cisplatin-sensitive lines compared to cisplatin-resistant lines) was “Significantly higher”; in the test with AZ521 cells (BMP4-silenced AZ521 cells compared to control cells, after cisplatin treatment) it was “significantly higher”. Moreover, the nuclear ellipticity result in the test on GC cells (top four sensitive lines compared to resistant lines) is reported as “Significant changes”. The IC50 in the test on YCC11 cells [2] (BMP4-overexpressing YCC11 cells (individual clones 1 and 2)) was 200 to 500 nM; in the test with YCC11 cells [2] (parental YCC11 cells) it was 45 nM. In the test on YCC11 cells [2] (BMP4-overexpressing YCC11 cells, after cisplatin), the “active Caspase-3 levels” value is reported as “reduction”.
